The text below walks through data of ChEMBL document CHEMBL2203185, “Development of sub-nanomolar dipeptidic ligands of neuropeptide FF receptors” (Bioorg Med Chem Lett, 2012).

Molecules are shown by their SMILES. Non-standard residues stand in square brackets, D forms with d. Residues, ends and D or L forms follow the SMILES beside them. Inp = O=C(O)C1CCNCC1

Holding throughout (type): cell-based
Test [1] concerns the target T1, Neuropeptide FF receptor 2 (Homo sapiens, UniProt Q9Y5X5). Description: Displacement of [3H]FFRF-NH2 from human flag-tagged NPFF2 receptor expressed in CHO cells at 5 uM by scintillation counting. For orientation: Loss of bound radioactivity is the signal in a displacement assay; it reports binding, not function.
Test [2] addresses T1, Neuropeptide FF receptor 2. Description: Displacement of [3H]FFRF-NH2 from human flag-tagged NPFF2 receptor expressed in CHO cells at 500 nM by scintillation counting.
Test [3] has as its target T2, Neuropeptide FF receptor 1 (Homo sapiens, UniProt Q9GZQ6). Description: Displacement of [3H]FFRF-NH2 from human flag-tagged NPFF1 receptor expressed in CHO cells at 500 nM by scintillation counting.
Test [4] has as its target T2, Neuropeptide FF receptor 1. Description: Displacement of [3H]FFRF-NH2 from human flag-tagged NPFF1 receptor expressed in CHO cells at 5 uM by scintillation counting.

T2 sequence (Q9GZQ6 whole entry): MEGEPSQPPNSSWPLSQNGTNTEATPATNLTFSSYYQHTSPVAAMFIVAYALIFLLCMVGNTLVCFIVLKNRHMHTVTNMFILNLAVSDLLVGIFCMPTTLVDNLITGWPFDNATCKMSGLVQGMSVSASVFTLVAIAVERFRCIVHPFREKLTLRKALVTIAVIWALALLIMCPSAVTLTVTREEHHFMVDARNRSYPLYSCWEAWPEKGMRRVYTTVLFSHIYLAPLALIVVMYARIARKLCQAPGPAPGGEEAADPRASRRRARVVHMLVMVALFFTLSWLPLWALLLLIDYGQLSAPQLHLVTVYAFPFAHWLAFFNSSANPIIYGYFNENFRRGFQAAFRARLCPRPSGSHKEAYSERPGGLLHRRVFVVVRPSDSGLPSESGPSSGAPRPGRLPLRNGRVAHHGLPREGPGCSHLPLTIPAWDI
T1 sequence (Q9Y5X5 whole entry): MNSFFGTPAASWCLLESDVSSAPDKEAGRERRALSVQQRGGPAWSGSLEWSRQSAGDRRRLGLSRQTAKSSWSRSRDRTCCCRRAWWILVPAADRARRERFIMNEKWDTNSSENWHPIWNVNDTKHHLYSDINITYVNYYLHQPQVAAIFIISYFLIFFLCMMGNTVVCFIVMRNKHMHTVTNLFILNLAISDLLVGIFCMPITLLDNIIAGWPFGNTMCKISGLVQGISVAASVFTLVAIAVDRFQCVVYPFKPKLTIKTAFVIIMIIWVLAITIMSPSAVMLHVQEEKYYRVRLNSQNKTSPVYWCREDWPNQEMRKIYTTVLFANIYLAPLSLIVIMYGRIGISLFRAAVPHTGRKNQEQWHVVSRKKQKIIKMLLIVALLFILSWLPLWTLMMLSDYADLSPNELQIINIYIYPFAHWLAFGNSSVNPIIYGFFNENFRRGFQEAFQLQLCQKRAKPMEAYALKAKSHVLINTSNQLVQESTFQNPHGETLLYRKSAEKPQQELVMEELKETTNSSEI

Broadly, the inhibition is the relative decrease from the control value, in per cent. With `CC(C)(C)c1ccc(C(=O)N[C@@H](CCCNC(=N)N)C(=O)N[C@@H](Cc2ccccc2)C(N)=O)cc1`, the inhibition in test [1] came out at 31%; in test [2], 14%; in test [3], 43%; in test [4], 94%.

For the compound `N=C(N)NCCC[C@H](NC(=O)/C=C/c1cccnc1)C(=O)N[C@@H](Cc1ccccc1)C(N)=O`, the inhibition in test [1] was found to be 27%; in test [2], 6%; in test [3], 3%; in test [4] it was 41%.

With `COc1ccc(/C=C/C(=O)N[C@@H](CCCNC(=N)N)C(=O)N[C@@H](Cc2ccccc2)C(N)=O)cc1OC`, the inhibition in test [1] was 34%; in test [2], 4%; in test [3] it was 19%; in test [4], 77%.

As to `COc1ccc(/C=C/C(=O)N[C@@H](CCCNC(=N)N)C(=O)N[C@@H](Cc2ccccc2)C(N)=O)cc1`, the inhibition in test [1] was found to be 64%; in test [2], 21%; in test [3] it was 35%; in test [4], 100%.

In the case of `N=C(N)NCCC[C@H](NC(=O)c1cc2ccccc2[nH]1)C(=O)N[C@@H](Cc1ccccc1)C(N)=O`, the inhibition is 80% in test [1], 35% in test [2], 26% in test [3] and 86% in test [4].

As to `N=C(N)NCCC[C@H](NC(=O)c1ccc(Cl)cc1)C(=O)N[C@@H](Cc1ccccc1)C(N)=O`, the inhibition in test [1] is 7%; in test [2] it was 3%; in test [3] it was 37%; in test [4], 59%.

Consider `N=C(N)NCCC[C@H](NC(=O)C(c1ccccc1)c1ccccc1)C(=O)N[C@@H](Cc1ccccc1)C(N)=O`, for which the inhibition came out at 33% in test [1], 0% in test [2], 34% in test [3] and 88% in test [4].

As for `N=C(N)NCCC[C@@H](NC(=O)Cc1ccccc1)C(=O)N[C@H](Cc1ccccc1)C(N)=O`, the inhibition in test [1] amounted to 30%; in test [2], 4%; in test [3] it was 43%; in test [4], 78%.

For the compound `CC(C)(C)C(=O)N[C@@H](CCCNC(=N)N)C(=O)N[C@@H](Cc1ccccc1)C(N)=O`, the inhibition amounted to 48% in test [1], 38% in test [2], 35% in test [3] and 91% in test [4].

For `N=C(N)NCCC[C@H](NC(=O)c1c(Cl)cccc1Cl)C(=O)N[C@@H](Cc1ccccc1)C(N)=O`, the inhibition in test [1] turned out to be 11%; in test [2] it was 0%; in test [3] it was 30%; in test [4], 85%.

With `N=C(N)NCCC[C@H](NC(=O)c1cccc(Cl)c1)C(=O)N[C@@H](Cc1ccccc1)C(N)=O`, the inhibition amounted to 20% in test [1], 0% in test [2], 56% in test [3] and 84% in test [4].

Consider `COc1ccc(C(=O)N[C@@H](CCCNC(=N)N)C(=O)N[C@@H](Cc2ccccc2)C(N)=O)cn1`, for which the inhibition was 54% in test [1], 14% in test [2], 19% in test [3] and 77% in test [4].

Turning to `N=C(N)NCCC[C@H](NC(=O)CCN1c2ccccc2Sc2ccccc21)C(=O)N[C@@H](Cc1ccccc1)C(N)=O`, the inhibition stood at 59% in test [1], 31% in test [2], 100% in test [3] and 100% in test [4].

`CCCCCC(=O)N[C@@H](CCCNC(=N)N)C(=O)N[C@@H](Cc1ccccc1)C(N)=O`: the inhibition in test [1] is 53%; in test [2], 30%; in test [3], 45%; in test [4], 95%.

Turning to `N=C(N)NCCC[C@H](NC(=O)c1cccc(C(=O)c2ccccc2)c1)C(=O)N[C@@H](Cc1ccccc1)C(N)=O`, the inhibition came to 40% in test [1], 0% in test [2], 15% in test [3] and 78% in test [4].

In the case of `N=C(N)NCCC[C@H](NC(=O)/C=C/c1cccc(O)c1)C(=O)N[C@@H](Cc1ccccc1)C(N)=O`, the inhibition in test [1] was found to be 47%; in test [2], 15%; in test [3], 21%; in test [4] it was 80%.

Take `COc1ccc(CC(=O)N[C@@H](CCCNC(=N)N)C(=O)N[C@@H](Cc2ccccc2)C(N)=O)cc1OC`: the inhibition in test [1] turned out to be 28%; in test [2], 0%; in test [3], 8%; in test [4], 70%.

For `N=C(N)NCCC[C@H](NC(=O)Cc1ccc(Cl)cc1)C(=O)N[C@@H](Cc1ccccc1)C(N)=O`, the inhibition in test [1] was 63%; in test [2] it was 9%; in test [3], 62%; in test [4], 100%.

In the case of `N=C(N)NCCC[C@@H](NC(=O)c1ccccc1)C(=O)N[C@H](Cc1ccccc1)C(N)=O`, the inhibition in test [1] was 30%; in test [2], 15%; in test [3], 35%; in test [4], 73%.

As for `COc1ccc(CC(=O)N[C@@H](CCCNC(=N)N)C(=O)N[C@@H](Cc2ccccc2)C(N)=O)cc1`, the inhibition stood at 21% in test [1], 14% in test [2], 18% in test [3] and 52% in test [4].

In the case of `N=C(N)NCCC[C@H](NC(=O)c1cccc2ccccc12)C(=O)N[C@@H](Cc1ccccc1)C(N)=O`, the inhibition in test [1] came out at 82%; in test [2], 37%; in test [3] it was 40%; in test [4] it was 90%.

Take `N=C(N)NCCC[C@H](NC(=O)c1nc2ccccc2[nH]1)C(=O)N[C@@H](Cc1ccccc1)C(N)=O`: the inhibition in test [1] was determined as 49%; in test [2], 12%; in test [3] it was 35%; in test [4], 98%.

Regarding `N=C(N)NCCC[C@H](NC(=O)C1CCNCC1)C(=O)N[C@@H](Cc1ccccc1)C(N)=O` (H-[Inp]-Arg-Phe-NH2), the inhibition turned out to be 59% in test [1], 19% in test [2], 26% in test [3] and 100% in test [4].

For the compound `N=C(N)NCCC[C@@H](NC(=O)C12CC3CC(CC(C3)C1)C2)C(=O)N[C@H](Cc1ccccc1)C(N)=O`, the inhibition in test [1] is 57%; in test [2], 11%; in test [3] it was 57%; in test [4], 100%.

Regarding `N=C(N)NCCC[C@H](NC(=O)Cc1ccccc1)C(=O)N[C@@H](Cc1ccccc1)C(N)=O`, the inhibition in test [1] amounted to 52%; in test [2], 5%; in test [3] it was 26%; in test [4], 82%.

Consider `N=C(N)NCCC[C@H](NC(=O)Cc1ccc(O)cc1)C(=O)N[C@@H](Cc1ccccc1)C(N)=O`, for which the inhibition in test [1] turned out to be 26%; in test [2], 0%; in test [3] it was 32%; in test [4] it was 76%.

`N=C(N)NCCC[C@@H](NC(=O)c1cccc(-c2ccccc2)c1)C(=O)N[C@H](Cc1ccccc1)C(N)=O`: the inhibition in test [1] came to 38%; in test [2] it was 6%; in test [3], 63%; in test [4], 88%.

On to `COc1ccc(C(=O)N[C@@H](CCCNC(=N)N)C(=O)N[C@@H](Cc2ccccc2)C(N)=O)cc1`, for which the inhibition was determined as 21% in test [1], 1% in test [2], 18% in test [3] and 71% in test [4].

Take `N=C(N)NCCC[C@H](NC(=O)c1ccc(O)c(O)c1)C(=O)N[C@@H](Cc1ccccc1)C(N)=O`: the inhibition in test [1] came to 28%; in test [2], 0%; in test [3], 18%; in test [4], 56%.

Turning to `N=C(N)NCCC[C@H](NC(=O)c1cccc(-c2ccccc2)c1)C(=O)N[C@@H](Cc1ccccc1)C(N)=O`, the inhibition in test [1] came to 56%; in test [2] it was 27%; in test [3] it was 26%; in test [4], 82%.

Turning to `N=C(N)NCCC[C@@H](NC(=O)c1cccc(-c2ccccc2)c1)C(=O)N[C@@H](Cc1ccccc1)C(N)=O`, the inhibition in test [1] was 72%; in test [2] it was 65%; in test [3], 85%; in test [4], 99%.

On to `COc1ccccc1C(=O)N[C@@H](CCCNC(=N)N)C(=O)N[C@@H](Cc1ccccc1)C(N)=O`, for which the inhibition came to 19% in test [1], 10% in test [2], 40% in test [3] and 96% in test [4].

With `N=C(N)NCCC[C@@H](NC(=O)c1ccc(-c2ccccc2)cc1)C(=O)N[C@H](Cc1ccccc1)C(N)=O`, the inhibition in test [1] came to 50%; in test [2] it was 6%; in test [3], 40%; in test [4] it was 83%.

In the case of `N=C(N)NCCC[C@@H](NC(=O)Cc1ccccc1)C(=O)N[C@@H](Cc1ccccc1)C(N)=O`, the inhibition worked out at 40% in test [1], 30% in test [2], 68% in test [3] and 87% in test [4].

Regarding `N=C(N)NCCC[C@H](NC(=O)c1cnc2ccccc2c1)C(=O)N[C@@H](Cc1ccccc1)C(N)=O`, the inhibition in test [1] was determined as 47%; in test [2] it was 24%; in test [3], 22%; in test [4] it was 79%.

With `N=C(N)NCCC[C@H](NC(=O)c1ccc2nc[nH]c2c1)C(=O)N[C@@H](Cc1ccccc1)C(N)=O`, the inhibition in test [1] is 27%; in test [2], 8%; in test [3], 9%; in test [4] it was 28%.

On to `N=C(N)NCCC[C@H](NC(=O)CCC(=O)O)C(=O)N[C@@H](Cc1ccccc1)C(N)=O`, for which the inhibition turned out to be 20% in test [1], 0% in test [2], 29% in test [3] and 34% in test [4].
